{
  "source": "PubChem BioAssay AID256",
  "about": "(DTP/NCI, 2004)",
  "tested_on": "CD2F1 mice, L1210 leukemia ip, survival T/C",
  "test": "NCI In Vivo Anticancer Drug Screen. Data for tumor model L1210 Leukemia (intraperitoneal) in CD2F1 (CDF1) mice",
  "conditions": "higher = longer survival",
  "method_in_brief": "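Ratio T/C, where T is the treated-group value and C the vehicle-dosed control value, from mice implanted with a transplantable tumor.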",
  "key": {"[1]": {"conditions": "endpoint: mean survival time, dose: 100.0 mg/kg/injection, schedule: Q04DX003 (ip), vehicle: saline with Tween-80"}, "[2]": {"conditions": "endpoint: mean survival time, dose: 100.0 mg/kg/injection, schedule: Q04DX002 (ip), vehicle: saline with Tween-80"}, "[3]": {"conditions": "endpoint: mean survival time, dose: 200.0 mg/kg/injection, schedule: Q04DX002 (ip), vehicle: saline with Tween-80"}, "[4]": {"conditions": "endpoint: mean survival time, dose: 100.0 mg/kg/injection, schedule: Q01DX001 (ip), vehicle: saline"}, "[5]": {"conditions": "endpoint: mean survival time, dose: 200.0 mg/kg/injection, schedule: Q01DX001 (ip), vehicle: saline"}, "[6]": {"conditions": "endpoint: mean survival time, dose: 100.0 mg/kg/injection, schedule: Q04DX002 (ip), vehicle: saline"}, "[7]": {"conditions": "endpoint: mean survival time, dose: 200.0 mg/kg/injection, schedule: Q04DX002 (ip), vehicle: saline"}, "[8]": {"conditions": "endpoint: mean survival time, dose: 25.0 mg/kg/injection, schedule: Q01DX009 (ip), vehicle: water"}, "[9]": {"conditions": "endpoint: mean survival time, dose: 50.0 mg/kg/injection, schedule: Q01DX009 (ip), vehicle: water"}, "[10]": {"conditions": "endpoint: mean survival time, dose: 100.0 mg/kg/injection, schedule: Q01DX009 (ip), vehicle: water"}},
  "note": "Several values for one entry are separate records, joined by “and”; a condition that tells them apart may be missing. Identical values can stand only once. Toxic doses and inconclusive results are not listed. Residues, ends and D or L forms follow the SMILES beside them.",
  "data": [
    {"compound": "CC#CC(=O)SCCNC(=O)CCNC(=O)CC(C)(C)C", "values": [
      {"measurement": "T/C", "setting": "endpoint: mean survival time, dose: 12.5 mg/kg/injection, schedule: Q01DX009 (ip), vehicle: saline with Tween-80", "value": "101 % of control"},
      {"measurement": "T/C", "setting": "endpoint: mean survival time, dose: 25.0 mg/kg/injection, schedule: Q01DX009 (ip), vehicle: saline with Tween-80", "value": "95 % of control"},
      {"measurement": "T/C", "setting": "endpoint: mean survival time, dose: 25.0 mg/kg/injection, schedule: Q04DX003 (ip), vehicle: saline with Tween-80", "value": "106 % of control"},
      {"measurement": "T/C", "setting": "endpoint: mean survival time, dose: 50.0 mg/kg/injection, schedule: Q01DX009 (ip), vehicle: saline with Tween-80", "value": "98 % of control"},
      {"measurement": "T/C", "setting": "endpoint: mean survival time, dose: 50.0 mg/kg/injection, schedule: Q04DX003 (ip), vehicle: saline with Tween-80", "value": "94 % of control"},
      {"measurement": "T/C", "setting": "endpoint: mean survival time, dose: 100.0 mg/kg/injection, schedule: Q01DX009 (ip), vehicle: saline with Tween-80", "value": "88 % of control"},
      {"measurement": "T/C", "setting": "[1]", "value": "98 % of control"}
    ]},
    {"compound": "O=C1C=C(N2C3C4CCC(C4)C32)C(=O)C=C1c1ccccc1", "note": "(configuration not stated)", "values": [
      {"measurement": "T/C", "setting": "endpoint: mean survival time, dose: 50.0 mg/kg/injection, schedule: Q01DX001 (ip), vehicle: saline with Tween-80", "value": "96 % of control and 98 % of control and 108 % of control"},
      {"measurement": "T/C", "setting": "endpoint: mean survival time, dose: 100.0 mg/kg/injection, schedule: Q01DX001 (ip), vehicle: saline with Tween-80", "value": "121 % of control and 94 % of control and 96 % of control"},
      {"measurement": "T/C", "setting": "endpoint: mean survival time, dose: 200.0 mg/kg/injection, schedule: Q01DX001 (ip), vehicle: saline with Tween-80", "value": "115 % of control and 97 % of control and 102 % of control"},
      {"measurement": "T/C", "setting": "endpoint: mean survival time, dose: 400.0 mg/kg/injection, schedule: Q01DX001 (ip), vehicle: saline with Tween-80", "value": "102 % of control"}
    ]},
    {"compound": "CCCCCCCCCCCOc1ccc(Cl)cc1Cl", "values": [
      {"measurement": "T/C", "setting": "[2]", "value": "90 % of control"},
      {"measurement": "T/C", "setting": "[3]", "value": "93 % of control"},
      {"measurement": "T/C", "setting": "endpoint: mean survival time, dose: 400.0 mg/kg/injection, schedule: Q04DX002 (ip), vehicle: saline with Tween-80", "value": "86 % of control"}
    ]},
    {"compound": "NC1(C(=O)O)CCCC1.[Pd]", "values": [
      {"measurement": "T/C", "setting": "[4]", "value": "100 % of control"},
      {"measurement": "T/C", "setting": "[5]", "value": "96 % of control"}
    ]},
    {"compound": "CC(C)C(O)(c1ccccc1)C(O)(c1ccccc1)C(C)C", "note": "(configuration not stated)", "values": [
      {"measurement": "T/C", "setting": "endpoint: mean survival time, dose: 50.0 mg/kg/injection, schedule: Q04DX002 (ip), vehicle: saline with Tween-80", "value": "100 % of control"},
      {"measurement": "T/C", "setting": "[2]", "value": "96 % of control"},
      {"measurement": "T/C", "setting": "[3]", "value": "100 % of control"}
    ]},
    {"compound": "Nc1nc(=O)[nH]c(N)c1N", "values": [
      {"measurement": "T/C", "setting": "[6]", "value": "97 % of control"},
      {"measurement": "T/C", "setting": "[7]", "value": "117 % of control"}
    ]},
    {"compound": "C=CCC1(C(=O)OCC)CCCCC1=O", "note": "(configuration not stated)", "values": [
      {"measurement": "T/C", "setting": "[1]", "value": "103 % of control"},
      {"measurement": "T/C", "setting": "endpoint: mean survival time, dose: 200.0 mg/kg/injection, schedule: Q04DX003 (ip), vehicle: saline with Tween-80", "value": "106 % of control"},
      {"measurement": "T/C", "setting": "endpoint: mean survival time, dose: 400.0 mg/kg/injection, schedule: Q04DX003 (ip), vehicle: saline with Tween-80", "value": "110 % of control"}
    ]},
    {"compound": "OCCc1ccncc1", "values": [
      {"measurement": "T/C", "setting": "[4]", "value": "103 % of control"},
      {"measurement": "T/C", "setting": "[5]", "value": "105 % of control"}
    ]},
    {"compound": "CC(C)C1OCC(C)(C)C(C)O1", "note": "(configuration not stated)", "values": [
      {"measurement": "T/C", "setting": "endpoint: mean survival time, dose: 50.0 mg/kg/injection, schedule: Q04DX002 (ip), vehicle: saline", "value": "96 % of control"},
      {"measurement": "T/C", "setting": "[6]", "value": "96 % of control"},
      {"measurement": "T/C", "setting": "[7]", "value": "93 % of control"}
    ]},
    {"compound": "Nc1c(/C=C/c2cc3cc(C4=NCCN4)ccc3o2)[nH]c2cc(C3=NCCN3)ccc12", "values": [
      {"measurement": "T/C", "setting": "endpoint: median survival time, dose: 3.12 mg/kg/injection, schedule: Q01DX009 (ip), vehicle: Klucel (hydroxypropylcellulose) (HPC)", "value": "124 % of control"},
      {"measurement": "T/C", "setting": "endpoint: median survival time, dose: 18.0 mg/kg/injection, schedule: Q01DX005 (ip), vehicle: Klucel (hydroxypropylcellulose) (HPC)", "value": "178 % of control"},
      {"measurement": "T/C", "setting": "endpoint: median survival time, dose: 25.0 mg/kg/injection, schedule: Q01DX005 (ip), vehicle: Klucel (hydroxypropylcellulose) (HPC)", "value": "160 % of control"},
      {"measurement": "T/C", "setting": "endpoint: median survival time, dose: 30.0 mg/kg/injection, schedule: Q01DX005 (ip), vehicle: Klucel (hydroxypropylcellulose) (HPC)", "value": "297 % of control"},
      {"measurement": "T/C", "setting": "endpoint: median survival time, dose: 50.0 mg/kg/injection, schedule: Q01DX005 (ip), vehicle: Klucel (hydroxypropylcellulose) (HPC)", "value": "171 % of control and 237 % of control"}
    ]},
    {"compound": "CC(=O)OCC(OC(C)=O)C(OC(C)=O)C(/C=N\\Nc1ccccc1)=N/Nc1ccccc1", "note": "(configuration not stated)", "values": [
      {"measurement": "T/C", "setting": "endpoint: mean survival time, dose: 37.5 mg/kg/injection, schedule: Q01DX001 (ip), vehicle: saline with Tween-80", "value": "92 % of control"},
      {"measurement": "T/C", "setting": "endpoint: mean survival time, dose: 75.0 mg/kg/injection, schedule: Q01DX001 (ip), vehicle: saline with Tween-80", "value": "96 % of control"},
      {"measurement": "T/C", "setting": "endpoint: mean survival time, dose: 150.0 mg/kg/injection, schedule: Q01DX001 (ip), vehicle: saline with Tween-80", "value": "91 % of control"}
    ]},
    {"compound": "Nc1nc(N)c2nc(-c3ccc(Cl)c(Cl)c3)c(N)nc2n1", "values": [
      {"measurement": "T/C", "setting": "endpoint: mean survival time, dose: 12.5 mg/kg/injection, schedule: Q01DX009 (ip), vehicle: water", "value": "97 % of control"},
      {"measurement": "T/C", "setting": "[8]", "value": "97 % of control"},
      {"measurement": "T/C", "setting": "[9]", "value": "108 % of control"},
      {"measurement": "T/C", "setting": "[10]", "value": "93 % of control"}
    ]},
    {"compound": "S=c1[nH]nc(Nc2ccccc2Cl)s1", "values": [
      {"measurement": "T/C", "setting": "endpoint: mean survival time, dose: 100.0 mg/kg/injection, schedule: Q04DX003 (ip), vehicle: Klucel (hydroxypropylcellulose) (HPC)", "value": "95 % of control"},
      {"measurement": "T/C", "setting": "endpoint: mean survival time, dose: 200.0 mg/kg/injection, schedule: Q04DX003 (ip), vehicle: Klucel (hydroxypropylcellulose) (HPC)", "value": "95 % of control"},
      {"measurement": "T/C", "setting": "endpoint: mean survival time, dose: 400.0 mg/kg/injection, schedule: Q04DX003 (ip), vehicle: Klucel (hydroxypropylcellulose) (HPC)", "value": "95 % of control"}
    ]},
    {"compound": "CCOC(=O)NC1CCc2cc(OC)c(OC)c(OC)c2-c2ccc(OC)c(=O)cc21", "note": "(configuration not stated)", "values": [
      {"measurement": "T/C", "setting": "endpoint: median survival time, dose: 2.5 mg/kg/injection, schedule: Q01DX005 (ip), vehicle: Klucel (hydroxypropylcellulose) (HPC)", "value": "171 % of control"},
      {"measurement": "T/C", "setting": "endpoint: median survival time, dose: 3.0 mg/kg/injection, schedule: Q01DX005 (ip), vehicle: Klucel (hydroxypropylcellulose) (HPC)", "value": "164 % of control"},
      {"measurement": "T/C", "setting": "endpoint: median survival time, dose: 5.0 mg/kg/injection, schedule: Q01DX005 (ip), vehicle: Klucel (hydroxypropylcellulose) (HPC)", "value": "179 % of control and 187 % of control"},
      {"measurement": "T/C", "setting": "endpoint: median survival time, dose: 8.33 mg/kg/injection, schedule: Q01DX005 (ip), vehicle: Klucel (hydroxypropylcellulose) (HPC)", "value": "107 % of control"}
    ]},
    {"compound": "CC(C)C(NC(=O)C(NC(=O)C(CCCN=C(N)N)NC(=O)C(N)CCCCN)C(C)C)C(N)=O", "note": "(configuration not stated) (H-KRVV-NH2; configuration not given here)", "values": [
      {"measurement": "T/C", "setting": "[8]", "value": "95 % of control"},
      {"measurement": "T/C", "setting": "[9]", "value": "100 % of control"},
      {"measurement": "T/C", "setting": "[10]", "value": "108 % of control"},
      {"measurement": "T/C", "setting": "endpoint: mean survival time, dose: 200.0 mg/kg/injection, schedule: Q01DX009 (ip), vehicle: water", "value": "103 % of control"}
    ]}
  ]
}
